Results reported in US12514882B2, “Faecalibacterium prausnitzii strain EB-FPDK11 and use thereof” (ENTEROBIOME INC., priority 2020, dated 2026).
In brackets after ≈: the same amount, converted by molar mass.

What was measured:
Format in all cases: cell-based
[1] = tested on: Faecalibacterium prausnitzii DSM 17677^T; assay: MIC, liquid medium microdilution (CLSI), standard strain; details: for MIC breakpoint category (S/I/R): DSM 17677^T
[2] = tested on: Faecalibacterium prausnitzii EB-FPDK11 strain; assay: MIC, liquid medium microdilution (CLSI), EB-FPDK11; details: for MIC breakpoint category (S/I/R): EB-FPDK11; for resistance or susceptibility of the EB-FPDK11 strain to the agent (in words): text summary of Table 4
[3] = tested on: Bacteroides thetaiotaomicron ATCC 29741; assay: MIC, liquid medium microdilution (CLSI), QC strain; details: ATCC29741

O=C(N[C@H](CO)[C@H](O)c1ccc([N+](=O)[O-])cc1)C(Cl)Cl [CHL, chloramphenicol]
MIC breakpoint category (S/I/R) ([1]; CHL breakpoints): R (≥32) | MIC breakpoint category (S/I/R) ([2]; CHL breakpoints): S (≤8) | resistance or susceptibility of the EB-FPDK11 strain to the agent (in words) [2]: susceptibility

CCC[C@@H]1C[C@@H](C(=O)N[C@@H]([C@H]2O[C@H](SC)[C@H](O)[C@@H](O)[C@H]2O)[C@H](C)Cl)N(C)C1 [CLI, clindamycin]
MIC breakpoint category (S/I/R) ([1]; CLI breakpoints): (S) (≤2) | MIC breakpoint category (S/I/R) ([2]; CLI breakpoints): (S) (≤2)

CO/N=C(\C(=O)N[C@@H]1C(=O)N2C(C(=O)O)=CCS[C@H]12)c1csc(N)n1 [CTZ, ceftizoxime]
MIC breakpoint category (S/I/R) ([1]; CTZ breakpoints): I (64) | MIC breakpoint category (S/I/R) ([2]; CTZ breakpoints): R (≥128) | resistance or susceptibility of the EB-FPDK11 strain to the agent (in words) [2]: resistance

C[C@@H](O)[C@H]1C(=O)N2C(C(=O)O)=C(S[C@@H]3CN[C@H](C(=O)N(C)C)C3)[C@H](C)[C@H]12 [MEM, meropenem]
MIC [3]: 0.5 µg/mL (≈ 1.3 µM) | MIC breakpoint category (S/I/R) ([1]; MEM breakpoints): R (≥16) | MIC breakpoint category (S/I/R) ([2]; MEM breakpoints): R (≥16) | resistance or susceptibility of the EB-FPDK11 strain to the agent (in words) [2]: resistance

Cc1ncc([N+](=O)[O-])n1CCO [MTZ, metronidazole]
MIC breakpoint category (S/I/R) ([1]; MTZ breakpoints): S (≤8) | MIC breakpoint category (S/I/R) ([2]; MTZ breakpoints): 5 | resistance or susceptibility of the EB-FPDK11 strain to the agent (in words) [2]: susceptibility

COc1c(N2C[C@@H]3CCCN[C@@H]3C2)c(F)cc2c(=O)c(C(=O)O)cn(C3CC3)c12 [MXF, moxifloxacin]
MIC breakpoint category (S/I/R) ([1]; MXF breakpoints): R (≥8) | MIC breakpoint category (S/I/R) ([2]; MXF breakpoints): R (≥8)

Piperacillin-tazobactam [PTZ]
MIC breakpoint category (S/I/R) ([1]; PTZ breakpoints): R (≥128/4) | MIC ([1]; test strain DSM 17677^T): 256/4 | MIC breakpoint category (S/I/R) ([2]; PTZ breakpoints): R (≥128/4) | MIC ([2]; test strain EB-FPDK11): 256/4 | resistance or susceptibility of the EB-FPDK11 strain to the agent (in words) [2]: resistance
